{
  "source": "paper PMC7506137",
  "about": "“Selective Phosphodiesterase 1 Inhibitor BTTQ Reduces Blood Pressure in Spontaneously Hypertensive and Dahl Salt Sensitive Rats: Role of Peripheral Vasodilation” (Frontiers in Physiology, 2020)",
  "assay": "Plasma exposure (dried blood spot) after single oral dose",
  "assay_type": "in vivo",
  "conditions": "male, Sprague Dawley, rat, whole blood (dried blood spot), po",
  "procedure": "Male Sprague Dawley rats at 6 to 7 weeks were dosed orally by p.o. gavage with different doses of BTTQ formulated in 1% hydroxyethlycellulose (Dow Corning, Midland, MI, United States) (w/v), 0.25% polysorbate 80 (Sigma-Aldrich, St. Louis, MO, United States) (v/v), and 0.05% antifoam (v/v; Dow Corning, Midland, MI, United States) in purified water. Following dosing, ear temperature was measured by using a k-type thermocouple probe digital thermometer (Cole Parmer) every hour for 6 h and then at 24 h. Blood samples for plasma exposure measurement were obtained at the same time. Blood was collected via a tail snip directly into a 20-μL EDTA-coated capillary and immediately spotted onto a Whatman DMPK-C DBS card (GE Healthcare Bio-Sciences). Tail snips were performed by removing approximately 1 mm of the tail by using a scalpel. Blood flow was initiated by gentle squeezing of the tail. No analgesia or anesthesia was used during blood collections. A single sample and spot were collected per time point. The DBS cards were allowed to dry for approximately 2 h at room temperature, after which the cards were placed in a zip-top bag, stored, and shipped at ambient temperature.",
  "key": {"[1]": {"conditions": "1 mg/kg, oral 1 mg/kg, FU 0.053, read-out: Unbound Concentration, individual animals"}, "[2]": {"conditions": "1 mg/kg, oral 1 mg/kg, dried blood spot, read-out: Concentration, Mean"}, "[3]": {"conditions": "1 mg/kg, oral 1 mg/kg, dried blood spot, read-out: Concentration, individual animals"}, "[4]": {"conditions": "1 mg/kg, oral 1 mg/kg, FU 0.053, read-out: Unbound Concentration, Mean"}, "[5]": {"conditions": "3 mg/kg, oral 3 mg/kg, FU 0.053, read-out: Unbound Concentration, Mean"}, "[6]": {"conditions": "3 mg/kg, oral 3 mg/kg, FU 0.053, read-out: Unbound Concentration, individual animals"}, "[7]": {"conditions": "3 mg/kg, oral 3 mg/kg, dried blood spot, read-out: Concentration, Mean"}, "[8]": {"conditions": "3 mg/kg, oral 3 mg/kg, dried blood spot, read-out: Concentration, individual animals"}},
  "note": "Where two headings read alike, the source gives them in different places.",
  "data": [
    {"compound": "O=c1c2nnc(C3(C4CC4)CC3)n2c2c(n1CC1CC1)CCCC2", "note": "[BTTQ, 1-[1,1′-bi(cyclopropyl)-1-yl]-5-(cyclopropylmethyl)-6,7,8,9-tetrahydro[1,2,4]triazolo[4,3-A]quinoxaline-4(5H)-one]", "values": [
      {"measurement": "concentration at 2 h", "setting": "[1]", "result": 88.5, "unit": "nM"},
      {"measurement": "concentration at 2 h", "setting": "[2]", "result": 1650, "unit": "nM"},
      {"measurement": "concentration at 2 h", "setting": "[3]", "result": 1670, "unit": "nM"},
      {"measurement": "concentration at 3 h", "setting": "[4]", "result": 62.1, "unit": "nM"},
      {"measurement": "concentration at 3 h", "setting": "[1]", "result": 64.1, "unit": "nM"},
      {"measurement": "concentration at 3 h", "setting": "[2]", "result": 1170, "unit": "nM"},
      {"measurement": "concentration at 3 h", "setting": "[3]", "result": 1210, "unit": "nM"},
      {"measurement": "concentration at 4 h", "setting": "[4]", "result": 57.3, "unit": "nM"},
      {"measurement": "concentration at 4 h", "setting": "[1]", "result": 47.7, "unit": "nM"},
      {"measurement": "concentration at 4 h", "setting": "[2]", "result": 1080, "unit": "nM"},
      {"measurement": "concentration at 4 h", "setting": "[3]", "result": 900, "unit": "nM"},
      {"measurement": "concentration at 5 h", "setting": "[4]", "result": 49.6, "unit": "nM"},
      {"measurement": "concentration at 5 h", "setting": "[1]", "result": 41.1, "unit": "nM"},
      {"measurement": "concentration at 5 h", "setting": "[2]", "result": 935, "unit": "nM"},
      {"measurement": "concentration at 5 h", "setting": "[3]", "result": 775, "unit": "nM"},
      {"measurement": "concentration at 6 h", "setting": "[4]", "result": 41.3, "unit": "nM"},
      {"measurement": "concentration at 6 h", "setting": "[1]", "result": 41.3, "unit": "nM"},
      {"measurement": "concentration at 6 h", "setting": "[2]", "result": 780, "unit": "nM"},
      {"measurement": "concentration at 6 h", "setting": "[3]", "result": 779, "unit": "nM"},
      {"measurement": "concentration at 24 h", "setting": "[4]", "result": 2.13, "unit": "nM"},
      {"measurement": "concentration at 24 h", "setting": "[2]", "result": 40.2, "unit": "nM"},
      {"measurement": "concentration at 1 h", "setting": "[5]", "result": 197, "unit": "nM"},
      {"measurement": "concentration at 1 h", "setting": "[6]", "result": 142, "unit": "nM"},
      {"measurement": "concentration at 1 h", "setting": "[7]", "result": 3710, "unit": "nM"},
      {"measurement": "concentration at 1 h", "setting": "[8]", "result": 2670, "unit": "nM"},
      {"measurement": "concentration at 2 h", "setting": "[5]", "result": 195, "unit": "nM"},
      {"measurement": "concentration at 2 h", "setting": "[6]", "result": 166, "unit": "nM"},
      {"measurement": "concentration at 2 h", "setting": "[7]", "result": 3690, "unit": "nM"},
      {"measurement": "concentration at 2 h", "setting": "[8]", "result": 3140, "unit": "nM"},
      {"measurement": "concentration at 3 h", "setting": "[5]", "result": 168, "unit": "nM"},
      {"measurement": "concentration at 3 h", "setting": "[6]", "result": 169, "unit": "nM"},
      {"measurement": "concentration at 3 h", "setting": "[7]", "result": 3170, "unit": "nM"},
      {"measurement": "concentration at 3 h", "setting": "[8]", "result": 3180, "unit": "nM"},
      {"measurement": "concentration at 4 h", "setting": "[5]", "result": 148, "unit": "nM"},
      {"measurement": "concentration at 4 h", "setting": "[6]", "result": 155, "unit": "nM"},
      {"measurement": "concentration at 4 h", "setting": "[7]", "result": 2790, "unit": "nM"},
      {"measurement": "concentration at 4 h", "setting": "[8]", "result": 2920, "unit": "nM"},
      {"measurement": "concentration at 5 h", "setting": "[5]", "result": 115, "unit": "nM"},
      {"measurement": "concentration at 5 h", "setting": "[6]", "result": 142, "unit": "nM"}
    ]}
  ]
}
